# What was measured:
# RXRα = target: T1, RXRα (Homo sapiens, UniProt P19793); details: insect and mammalian cells; cited from earlier work
# T1 construct: host or cells: insect and mammalian cells (as reported by Harmon et al.)
# T1 sequence (P19793 1-462): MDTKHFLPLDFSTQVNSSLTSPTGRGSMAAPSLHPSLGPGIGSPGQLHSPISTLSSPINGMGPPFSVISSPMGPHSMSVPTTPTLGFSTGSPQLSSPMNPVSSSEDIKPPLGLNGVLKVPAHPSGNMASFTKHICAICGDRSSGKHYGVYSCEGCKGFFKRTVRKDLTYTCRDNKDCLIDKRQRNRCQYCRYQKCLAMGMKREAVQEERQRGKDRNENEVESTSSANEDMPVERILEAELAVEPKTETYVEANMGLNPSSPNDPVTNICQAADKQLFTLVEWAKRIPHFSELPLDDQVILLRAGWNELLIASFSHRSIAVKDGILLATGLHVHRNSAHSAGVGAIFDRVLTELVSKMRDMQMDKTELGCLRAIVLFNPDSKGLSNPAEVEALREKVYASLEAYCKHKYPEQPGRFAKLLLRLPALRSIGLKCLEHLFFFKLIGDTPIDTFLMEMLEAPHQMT
# [1] = target: T2, receptor polypeptides GAL4-EcR^330-825-C1 and USP-VP16 (Drosophila melanogaster, UniProt P20153); experiment: Reversal by juvenile hormone agonists of GAL4-EcR-C1 + USP-VP16 activation of a luciferase target cassette in transformed maize cells; type: cell-based; details: 10 μM ligand, approximately 48 hours
# T2 construct: expressed in transfected cells; host or cells: maize suspension cells, microprojectile bombardment
# T2 sequence (P06492 411-490, one chain of several): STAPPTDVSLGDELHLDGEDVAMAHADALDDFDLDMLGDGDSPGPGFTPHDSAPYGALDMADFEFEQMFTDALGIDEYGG
# Description: (§1) Control of target polypeptide expression by various receptor polypeptides, including the chimeric receptor polypeptides of the present invention, can be shown by simultaneously transforming plant cells with the necessary gene constructions using high velocity microprojectile bombardment, followed by biochemical assay for the presence of the target polypeptide. The necessary gene constructions comprise a USP receptor expression cassette which encodes a USP receptor polypeptide (FIG. 1). Optionally, the USP receptor expression cassette may be transformed along with a secondary receptor expression cassette which encodes a receptor polypeptide distinct from USP (FIGS. 2 and 3). In addition, a target expression cassette which encodes a target polypeptide is also necessary.
# (§2) The expression cassettes were simultaneously delivered to maize suspension cells cultured in liquid N6 medium (Chu et al. Scientia Sinica XVIII:659-668, 1975) by high velocity microprojectile bombardment using standard techniques of DNA precipation onto microprojectiles and high velocity bombardment driven by compressed helium (PDS1000/He, BioRad, Hercules, Calif.). Transfected cells were incubated in liquid suspension in the presence of the appropriate chemical ligand for approximately 48 hours in N6 media. After incubation, the transformed cells were harvested then homogenized at 0° C. Debris in the extracts was removed by centrifugation at 10,000 g at 4° C. for 5 minutes.
# (§3) Target polypeptide expression was detected by assaying the extract for the presence of the product encoded by the target expression cassette. One commonly used coding sequence for the target polypeptide when testing control of expression by the receptor polypeptides in the presence of a chemical ligand is firefly luciferase. The activity of firefly luciferase is determined by quantitating the chemiluminescence produced by luciferase catalyzed phosphorylation of luciferin using ATP as substrate (Promega Luciferase Kit, cat. no. E1500), using an Analytical Luminescence Model 2001 luminometer. […]
# [2] = target: T3, receptor polypeptide VP16-USP (Drosophila melanogaster, UniProt P20153); experiment: Chemical induction of luciferase in isolated leaves of transgenic Arabidopsis expressing VP16-USP with a DR-Luciferase reporter; type: cell-based; design: expressed in transfected cells; host or cells: transgenic Arabidopsis thaliana (Columbia), isolated leaves; Agrobacterium T-DNA construct; details: approximately 24 hours; for Fold increase in luciferase activity: 10 μM; for Luciferase Activity: 35S/VP16-USP, 10 μM ligand in 0.1% ethanol, light units per 10 seconds per 100 μg extract protein, control 638
# T3 sequence (P06492 413-490, one chain of several): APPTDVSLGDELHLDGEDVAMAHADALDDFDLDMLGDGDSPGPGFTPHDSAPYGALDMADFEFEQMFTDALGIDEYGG
# Description: Arabidopsis thaliana (Columbia) was transformed with an Agrobacterium vector harboring a CaMV 35S promoter and a DR-Luciferase reporter (as described in Example 13 above) by the following vacuum-infiltration procedure. Electrocompetent GV3101 Agrobacterium cells were prepared by incubating GV3101 Agrobacterium in 2×YT media at 28° C. with aeration for 24-30 hours to an OD600 of 0.5-0.7 units. Cells were chilled on ice for 10-30 minutes, and centrifuged at 5,000 RPM for 5 minutes at 4° C. The supernatant was discarded, and the cell pellet resuspended in 1 volume of ice-cold 10% glycerol. Cells were again centrifuged at 5,000 RPM for 5 minutes at 4° C. The supernatant was discarded, and the cell pellet resuspended in 0.05 volumes of ice-cold 10% glycerol. Cells were again centrifuged at 5,000 RPM for 5 minutes at 4° C. The supernatant was discarded, and the cell pellet resuspended in 0.02 volume of ice-cold 10% glycerol. Cells were again centrifuged at 5,000 RPM for 5 minutes at 4° C. The supernatant was discarded, and the cell pellet resuspended 0.02 volume of ice-cold 10% glycerol. Cells were again centrifuged at 5,000 RPM for 5 minutes at 4° C. The supernatant was discarded, and the cell pellet resuspended in 0.01 volume of ice-cold 10% glycerol. Cells were aliquoted in […] amounts per 1.5 ml microfuge tubes, quick-frozen in liquid N2, and stored at −80° C. Electrocompetent cells were used before 6 weeks storage at −80° C. Frozen electrocompetent cells were thawed on ice and 40 ml transfered to a pre-chilled 1.5 ml microfuge tube. 1 ml of the appropriate Agrobacterium plasmid DNA (2-10 ng) was added to the thawed cells and mixed on ice. The cell/plasmid mixture was transfered to a prechilled 0.2 cm Bio-Rad electroporation cuvette, and electroporated at 2.0 KVolts, 600 Ohms, 25 μFarad, with a 6 msec time constant. 1 †ml of 2×YT media was added to the electroporation cuvette, the cell/plasmid solution was mixed with a pipet tip, and the contents transfered to a fresh 1.5 ml microfuge tube. Cells were then incubated at […] for 1 hour on a shaker at 200 RPM. The cells were centrifuged down for 2 minutes at a setting of 6 in an Eppendorph adjustable-speed microfuge, the supernatant decanted, and the cell pellet resuspended in the remaining liquid. Resuspended cells were spread on an LB media plate with the appropriate antibiotic. Plates were incubated at 28-30° C. for […]. A 50 ml LB culture was innoculated with a single transformed colony in a 250 ml flask with Rifampicin at 100 μg/ml and Gentomycin at 25 μg/ml and Kanamycin at 100 μg/ml. The culture was incubated for 24-36 hours at 28° C. at 250 RPM and 10 ml of the culture was used to innoculate 500 ml LB+antibiotics in a 2-liter flask. This culture was incubated overnight at 28° C. with shaking at 250 RPM. […]
# [3] = target: USP-VP16 chimeric receptor polypeptide (Drosophila; herpes simplex virus) (UniProt P20153); experiment: cell-based or functional assay
# [4] = target: T3, receptor polypeptide VP16-USP; experiment: VP16-USP activation of a direct repeat luciferase target cassette in transformed maize cells; type: cell-based; design: expressed in transfected cells; details: 35S/VP16-USP, target (DR3)3-Bz1TATA/Luc, 10 μM ligand, 48 hours, no ligand 29,967
# Description: as §1, with “necessary. […]” for “necessary.”
# as §3, with “One commonly used coding sequence for the target polypeptide when testing control of expression by the receptor polypeptides in the presence of a chemical ligand is firefly luciferase.” left out
# [5] = target: T4, receptor polypeptides GAL4-EcR^330-825-C1 and USP-VP16 (Drosophila melanogaster, UniProt P20153+P34021); experiment: Tebufenozide-induced activation by GAL4-EcR-C1 + USP-VP16 of a luciferase target cassette in maize cells, and its block by methoprene; type: cell-based; details: approximately 48 hours
# T4 construct: expressed in transfected cells; host or cells: maize suspension cells, microprojectile bombardment
# Description: as §1, §2, §3
# USP = target: T5, USP (Drosophila melanogaster, UniProt P20153); details: Drosophila cell-culture assays; conditions in which RXR is responsive; cited from earlier work
# T5 construct: host or cells: Drosophila cell culture (as reported by Oro et al. and Harmon et al.)
# T5 sequence (P20153 1-508): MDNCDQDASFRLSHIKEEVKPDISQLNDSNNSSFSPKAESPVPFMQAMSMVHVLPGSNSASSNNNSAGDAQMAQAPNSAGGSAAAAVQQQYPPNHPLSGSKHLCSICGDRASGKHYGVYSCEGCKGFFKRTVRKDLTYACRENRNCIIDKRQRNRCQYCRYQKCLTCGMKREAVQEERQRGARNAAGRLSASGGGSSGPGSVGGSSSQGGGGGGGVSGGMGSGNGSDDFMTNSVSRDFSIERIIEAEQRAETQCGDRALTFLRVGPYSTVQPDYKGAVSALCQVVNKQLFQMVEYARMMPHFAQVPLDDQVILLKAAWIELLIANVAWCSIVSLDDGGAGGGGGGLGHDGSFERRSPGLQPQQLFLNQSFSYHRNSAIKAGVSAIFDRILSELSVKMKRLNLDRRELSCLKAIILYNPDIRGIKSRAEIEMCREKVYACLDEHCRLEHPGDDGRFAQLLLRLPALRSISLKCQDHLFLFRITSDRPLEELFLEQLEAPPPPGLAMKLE
# [6] = Experiment #1, 35S/GAL4-EcR^330-825-C1 + 35S/USP-VP16, target (GAL4b.s.)10-Bz1TATA/Luc, no ligand 277,862
compound,measurement,setting,value
Juvenile hormone,RXRα-mediated transcriptional activation of a recombinant reporter gene,RXRα,does not induce
"CCOC(=O)NCCOc1ccc(Oc2ccccc2)cc1 [Fenoxycarb, ethyl [2-(4-phenoxyphenoxy)ethyl]carbamate]",Luciferase Activity,[1]; [6],"77,418 light units"
same,Fold increase in luciferase activity,[2],6.2 fold
same,Luciferase Activity,[2],"3,991 light units"
GAL4-EcR^330-825-C1 chimeric receptor polypeptide (from UniProt P04386 1-147; P34021 330-825; P10290 219-273),"Luciferase Activity (light units) of the (GAL4b.s.)10-Bz1TATA/Luc reporter in maize cells, Experiment #1, no chemical ligand",[3],278000 light units
same,"Luciferase Activity (light units) of the (GAL4b.s.)10-Bz1TATA/Luc reporter in maize cells, Experiment #1, with 10 uM Fenoxycarb",[3],77400 light units
same,"Luciferase Activity (light units) of the (GAL4b.s.)10-Bz1TATA/Luc reporter in maize cells, Experiment #1, with 10 uM Methoprene",[3],14800 light units
same,"Luciferase Activity (light units) of the (GAL4b.s.)10-Bz1TATA/Luc reporter in maize cells, Experiment #2, no chemical ligand",[3],178000 light units
same,"Luciferase Activity (light units) of the (GAL4b.s.)10-Bz1TATA/Luc reporter in maize cells, Experiment #2, with 10 uM Methoprene",[3],5730 light units
same,"Luciferase Activity (light units) of the (GAL4b.s.)10-Bz1TATA/Luc reporter in maize cells, with 10 uM Tebufenozide",[3],909000 light units
same,"Luciferase Activity (light units) of the (GAL4b.s.)10-Bz1TATA/Luc reporter in maize cells, with 10 uM Tebufenozide + 10 uM Methoprene",[3],160000 light units
same,"level of tebufenozide-induced activation of luciferase gene expression (fold increase, tebufenozide alone)",[3],6 fold
COC(C)(C)CCC[C@H](C)C/C=C/C(C)=C/C(=O)OC(C)C (racemic) [Methoprene],RXRα-mediated transcriptional activation of a recombinant reporter gene,RXRα,transcriptionally activate
same,Luciferase Activity,[4],"485,458 light units"
same,Effect on tebufenozide-induced activation of luciferase gene expression,[5]; 10 μM methoprene with 10 μM tebufenozide,completely blocked
same,Luciferase Activity,[1]; [6],"14,786 light units"
same,Luciferase Activity,"[1]; Experiment #2, 35S/GAL4-EcR^330-825-C1 + 35S/USP-VP16, target (GAL4b.s.)10-Bz1TATA/Luc, no ligand 178,092","5,730 light units"
same,Fold increase in luciferase activity,[2],25 fold
same,Luciferase Activity,[2],"15,790 light units"
CCc1ccc(C(=O)NN(C(=O)c2cc(C)cc(C)c2)C(C)(C)C)cc1 [Tebufenozide],"Tebufenozide-induced activation of luciferase gene expression, fold increase when used alone",[5]; 10 μM,approximately 6 fold
same,Luciferase Activity,"[5]; 35S/GAL4-EcR^330-825-C1 + 35S/USP-VP16, target (GAL4b.s.)10-Bz1TATA/Luc, 10 μM each ligand, no ligand 178,092","908,912 light units"
COC(C)(C)CCCC(C)C/C=C/C(C)=C/C(=O)O (centres unmarked) [methoprene acid],RXRα-mediated transcriptional activation of a recombinant reporter gene,RXRα,transcriptionally activate
same,Activation / response of USP,USP,does not respond
